HELM strings list units from the 5' end as sugar, base in round brackets, then linkage (d deoxyribose, r ribose, m 2'-O-methyl, p phosphodiester). Strings are as the collection lists them; they lack the last nucleoside at the 3' end of the tested compound. [moe] = 2'-O-(2-methoxyethyl) (MOE); [sp] = phosphorothioate linkage; [m5C] = 5-methylcytosine

The target in the data set is ATXN3. As to the kind of experiment: mouse, dose not given. The following applies: ASO.
“RNA1{[moe]([m5C])[sp].[moe](A)p.[moe]([m5C])p.[moe](A)p.[moe]([m5C])[sp].d(T)[sp].d(T)[sp].d(T)[sp].d([m5C])[sp].d([m5C])[sp].d(T)[sp].d([m5C])[sp].d([m5C])[sp].d(T)[sp].d([m5C])[sp].[moe](A)p.[moe](A)p.[moe](T)[sp].[moe]([m5C])}$$$$ (last 3' nucleoside missing)” came in with a 3 h FOB score of 0 score 0-7.

As to “RNA1{[moe]([m5C])[sp].[moe](A)p.[moe]([m5C])p.[moe]([m5C])p.[moe](A)[sp].d(T)[sp].d([m5C])[sp].d(T)[sp].d(T)[sp].d(T)[sp].d(G)[sp].d(A)[sp].d([m5C])[sp].d(A)[sp].d(A)[sp].[moe](G)p.[moe]([m5C])p.[moe](T)[sp].[moe](A)}$$$$ (last 3' nucleoside missing)”, the 3 h FOB score stood at 1.25 score 0-7.

In turn, “RNA1{[moe]([m5C])[sp].[moe](T)p.[moe](G)p.[moe](G)p.[moe](T)[sp].d([m5C])[sp].d(A)[sp].d(G)[sp].d(T)[sp].d(T)[sp].d(T)[sp].d([m5C])[sp].d([m5C])[sp].d(T)[sp].d(A)[sp].[moe](A)p.[moe](T)p.[moe](T)[sp].[moe](T)}$$$$ (last 3' nucleoside missing)” showed a 3 h FOB score of 0 score 0-7.

“RNA1{[moe]([m5C])[sp].[moe](T)p.[moe](G)p.[moe](T)p.[moe](A)[sp].d([m5C])[sp].d(A)[sp].d([m5C])[sp].d(T)[sp].d(T)[sp].d(T)[sp].d(T)[sp].d(A)[sp].d([m5C])[sp].d(A)[sp].[moe](T)p.[moe](T)p.[moe]([m5C])[sp].[moe]([m5C])}$$$$ (last 3' nucleoside missing)”: the 3 h FOB score was found to be 1 score 0-7.

As to “RNA1{[moe]([m5C])[sp].[moe](T)p.[moe](G)p.[moe]([m5C])p.[moe](A)[sp].d([m5C])[sp].d(A)[sp].d([m5C])[sp].d(T)[sp].d(T)[sp].d(T)[sp].d([m5C])[sp].d([m5C])[sp].d(T)[sp].d([m5C])[sp].[moe]([m5C])p.[moe](T)p.[moe]([m5C])[sp].[moe](A)}$$$$ (last 3' nucleoside missing)”, the 3 h FOB score was 0 score 0-7.

Consider “RNA1{[moe]([m5C])[sp].[moe]([m5C])p.[moe](A)p.[moe](A)p.[moe](T)[sp].d(A)[sp].d(T)[sp].d(T)[sp].d(T)[sp].d(A)[sp].d(T)[sp].d(A)[sp].d(G)[sp].d(G)[sp].d(T)[sp].[moe](G)p.[moe]([m5C])p.[moe](T)[sp].[moe](G)}$$$$ (last 3' nucleoside missing)”, for which the 3 h FOB score was found to be 3.5 score 0-7.

Turning to “RNA1{[moe]([m5C])[sp].[moe]([m5C])p.[moe](A)p.[moe](A)p.[moe](T)p.d(A)[sp].d(T)[sp].d(T)[sp].d(T)[sp].d(A)[sp].d(T)[sp].d(A)[sp].d(G)[sp].d(G)[sp].d(T)[sp].[moe](G)p.[moe]([m5C])p.[moe](T)[sp].[moe](G)}$$$$ (last 3' nucleoside missing)”, the 3 h FOB score was 1.75 score 0-7.

The substance “RNA1{[moe]([m5C])[sp].[moe]([m5C])p.[moe]([m5C])p.[moe](A)p.[moe](A)[sp].d(T)[sp].d(A)[sp].d(A)[sp].d(T)[sp].d([m5C])[sp].d(T)[sp].d(G)[sp].d(A)[sp].d([m5C])[sp].d(A)[sp].[moe](T)p.[moe]([m5C])p.[moe]([m5C])[sp].[moe](T)}$$$$ (last 3' nucleoside missing)” yielded a 3 h FOB score of 1.5 score 0-7.

(Values after the OligoGym collection.)
